Laboratory results taken from patent publication EP2161029A1, “Composition comprising peptides” (Unilever N.V., priority 2008, dated 2010).
Peptide text beside a SMILES is read from it.

Description: The pH of simulated gastric fluid (SGF, 0.15 M NaCl, pH 2.5) was increased to 7.5 with […] (40 mM), and the following compounds were added to adjust the pH to 6.8 and simulate a duodenal-jejunal environment and create simulated small intestinal fluid (SIF): (i) a bile salt mixture containing equimolar quantities (0.125 M) of sodium taurocholate and glycodeoxycholic acid in NaHC03 (1 M), (ii) solutions of pancreatin from porcine pancreas (9 mg/mL) in water was prepared and added at approximately physiological ratios. The pH was adjusted to 6.8 with HCl (0.1 M). Peptides were dissolved in SIF at a final peptide concentration of 50 µM. Aliquots (1 mL) were prepared for sampling at different time points. Simulated intestinal digestion was carried out at 37°C, and aliquots (1 mL) were taken at 0, 5, 15, and 60 min after the start of the experiment. After peptide hydrolysis, digestive enzymes were inactivated at 95°C for 15 min and samples were cooled immediately on ice water and stored at -20 °C until further analysis.
Quantification of dipeptides derived from digestion were performed using a liquid chromatography multiple reaction ion monitoring-mass spectrometry (LC-MRM-MS) method as described van Platerink CJ, Janssen HG, Horsten R, Haverkamp J. Quantification of ACE inhibiting peptides in human plasma using high performance liquid chromatography-mass spectrometry. J Chromatogr B Analyt Technol Biomed Life Sci 2006,830:151-157. Peptide separation was performed on an Atlantis Hilic Silica column (2.1 x 150 mm, 3 µm particle size) and a Micromass Quattro-II (Milford MA, USA) with HP1100LC system (Hewlett-Packard, USA). The gradient started at 100% 0.1% trifluoro acetic acid in Milli-Q water and ended at 70% 0.1 % trifluoro acetic acid in acetonitrile. To support the ionization, a 70/30 mixture of propionic acid and propanol-2 was added postcolumn at a flow rate of 50 mL·min-1. All analyses were conducted on an Alliance 2795 HPLC (Waters, Milford MA, USA) combined with a Quattro Premier triple quadrupole mass spectrometer from the same supplier.
An intestinal stability data set consisting of 228 dipeptides was generated based on the results from the simulated digestion experiments. The area under the time - peptide concentration curve was calculated and used for further analysis and modelling. An ACE inhibitory dipeptide database consisting of 228 dipeptides was constructed.
For each peptide the relative stability (in % of initial dipeptide concentration) was plotted against time and the area under the curve (AUC) was calculated.

Structure (SMILES) | Stability observed AUC | AUC | intestinal stability (in words)
NC(N)=NCCC[C@H](N)C(=O)N[C@@H](Cc1c[nH]c2ccccc12)C(=O)O [Arg-Trp] (H-Arg-Trp-OH) | 265±10 | – | –
NC(=O)C[C@H](N)C(=O)N[C@@H](Cc1ccc(O)cc1)C(=O)O [Asn-Tyr] (H-Asn-Tyr-OH) | 240±12 | – | –
N[C@@H](CC(=O)O)C(=O)N1CCC[C@H]1C(=O)O [DP, Asp-Pro] (H-Asp-Pro-OH) | – | > 5900 units | –
N[C@@H](CC(=O)O)C(=O)N[C@@H](Cc1c[nH]c2ccccc12)C(=O)O [DW] (H-Asp-Trp-OH) | – | – | high intestinal stability
C[C@H](NC(=O)CN)C(=O)O [GA, Gly-Ala] (H-Gly-Ala-OH) | – | > 5900 units | –
NCC(=O)N[C@@H](CS)C(=O)O [GC] (H-Gly-Cys-OH) | – | – | high intestinal stability
NCC(=O)N[C@@H](CC(N)=O)C(=O)O [GN] (H-Gly-Asn-OH) | – | – | high intestinal stability
CC(C)[C@H](NC(=O)CN)C(=O)O [GV, Gly-Val] (H-Gly-Val-OH) | – | > 5900 units | –
N=C(N)NCCC[C@H](NC(=O)CN)C(=O)O [Gly-Arg] (H-Gly-Arg-OH) | 4622±1283 | – | –
O=C(O)[C@H](Cc1c[nH]c2ccccc12)NC(=O)[C@@H]1CCCN1 [PW] (H-Pro-Trp-OH) | – | – | high intestinal stability
N[C@@H](CO)C(=O)N1CCC[C@H]1C(=O)O [Ser-Pro] (H-Ser-Pro-OH) | 4887±639 | – | most intestinal stable dipeptide
NC(=O)C[C@H](NC(=O)[C@@H](N)Cc1c[nH]c2ccccc12)C(=O)O [Trp-Asn] (H-Trp-Asn-OH) | 4812±901 | – | –
N[C@@H](Cc1c[nH]c2ccccc12)C(=O)NCC(=O)O [Trp-Gly] (H-Trp-Gly-OH) | 4280±721 | – | –
N[C@@H](Cc1c[nH]c2ccccc12)C(=O)N[C@@H](Cc1c[nH]cn1)C(=O)O [Trp-His] (H-Trp-His-OH) | 2934±800 | – | –
N[C@@H](Cc1c[nH]c2ccccc12)C(=O)N1CCC[C@H]1C(=O)O [Trp-Pro] (H-Trp-Pro-OH) | 4606±129 | – | –
C[C@H](NC(=O)[C@@H](N)Cc1ccc(O)cc1)C(=O)O [Tyr-Ala] | 4593±1930 | – | –
N[C@@H](Cc1ccc(O)cc1)C(=O)NCC(=O)O [Tyr-Gly] | 3384±475 | – | high stability
N[C@@H](Cc1ccc(O)cc1)C(=O)N1CCC[C@H]1C(=O)O [Tyr-Pro] (H-Tyr-Pro-OH) | 4187±399 | – | –
CC(C)[C@H](N)C(=O)N[C@@H](Cc1ccc(O)cc1)C(=O)O [Val-Tyr] (H-Val-Tyr-OH) | 373±27 | – | –
